Entries after “also recorded” stand apart in the source; their conditions may differ.
Columns and labels:
[1] = test system: Streptozotocin (STZ)-induced diabetes model; assay: Streptozotocin (STZ)-induced diabetes model in mice: blood glucose, serum insulin, body weight, pancreas histopathology; assay type: in vivo
Description: In order to confirm the efficacy of 1-palmitoyl-2-linoleoyl-3- acetyl-racglycerol (EC-18 or PLAG) in the treatment of diabetes disease, Streptozotocin (STZ)-induced diabetes model were used in the experiments.
Mice were divided into four groups (control group, STZ-only treatment group, PLAG-co-treatment group, and PLAG-post-treatment group). After a 16-h fast, the three treated groups except the control group were injected intraperitoneally with STZ (200 mg/kg BW) prepared fresh in citrate buffer, wherein BW means body weight. STZ-only treatment mice received no additional treatment.
On the same day, PLAG-co-treatment group mice began treatment with PLAG (250 mg/kg, p.o.) once daily for 3 consecutive days. The PLAG-post-treatment group received PLAG (250 mg/kg, p.o.) for 2 consecutive days beginning 1 day after STZ injection. As the PLAG, 1-palmitoyl-2-linoleoyl-3-acetyl-rac-glycerol represented by Formula 2 was used.
Blood was collected via the retro-orbital plexus, and blood glucose levels were monitored during the experiment. Blood glucose was measured using the Accu-Chek glucometer (Roche, Seoul, Republic of Korea). FIG. 1A is a chart measuring the blood glucose of the control group and the experimental groups on the first day.
All mice were sacrificed on day 4, last day of experiment (day 4), serum insulin was measured (FIG. 1B). Tissues of the pancreatic tissue of the control group and the experimental group were collected and fixed in 10% formalin for further analysis. During the experiment, the weight change of the control group and the experimental groups was measured (FIG. 1C).
Pancreas tissues were fixed in 10% formalin, embedded in paraffin, and sectioned at a 4 μm thickness. For immunohistochemistry, sections were deparaffinized and […] using xylene and a graded ethanol series Staining was performed using the Real EnVision Detection System Peroxidase-DAB kit (Dako, Glostrup, Denmark) following the manufacturer's instructions, and then observed under a light microscope (Olympus, Tokyo, Japan) (FIG. 1D, 400 magnification).

[2] = test system: apoptosis-related proteins BCL-2, BAX, cytochrome c, caspase-3; assay: Expression of apoptosis-related proteins (BCL-2, BAX, cytochrome c, caspase-3) by western blotting in STZ-treated cells; assay type: cell-based, rat
Description: In addition, to perform a special protein detection test (Western Blotting), cells were lysed by RIPA buffer (LPS Solution, Daejeon, Korea) supplemented with protease and phosphatase inhibitors (Thermo Scientific, Waltham, Mass., USA). Proteins were separated on 12% sodium dodecyl sulfate-polyacrylamide gels and transferred to polyvinylidene difluoride membranes (EMD Millipore, Darmstadt, Germany). The membranes were blocked with 5% BSA for 1 h and incubated with primary antibodies to GLUT2 (bs-0351r, Bioss, Woburn, Mass., USA), RAC1 (03589, EMD Millipore), BAX (B51030, Bioworld Tech, St. Louis Park, Minn., USA), BCL-2 (B51031, Bioworld), Cytochrome c (#4272, Cell Signaling Technology, Danvers, Mass., USA), Caspase-3 (#9662, Cell Signaling Technology), and Na+-K+ ATPase (#3010S, Cell Signaling Technology). After three washes in PBST, membranes were incubated with HRP-conjugated secondary antibodies (Enzo Life Sciences, dilution 1:5,000) for 1 h at room temperature. Protein bands were detected using ECL reagent (Thermo Scientific) and then visualized on films. Expression of apoptosis-related proteins like Bcl-2, Bax, cytochrome c, caspase-3 was analyzed by western blotting, Bax/Bcl-2 ratio is represented by a bar graph (FIG. 2-C). Data are presented as mean ±SD (***P<0.001 vs. control, #P<0.05, ##P<0.005 vs. STZ).

[3] = test system: clathrin- or caveolin-silenced INS-1 cells; assay: Cell apoptosis and ROS generation in clathrin or caveolin siRNA-transfected cells treated with STZ; assay type: cell-based, rat
Description: GLUT2-silenced cells were prepared to clarify the role of GLUT2 in STZ-treated cells. INS-1 cells were transfected with GLUT2 siRNA to determine whether GLUT2 expression is related to STZ-induced cell apoptosis and ROS generation.
Apoptosis of pancreatic beta cells, intracellular ROS generation and glucose intake was analyzed by flow cytometry using GLUT2 siRNA transfected cells (FIGS. 6-A to 6-C). The effect of PLAG on (D) cell apoptosis and (E) ROS generation in Endocytosis-related protein, clathrin or caveolin siRNA-transfected cells was analyzed (FIG. 6D and 6-E). Data are presented as mean ±SD. **P<0.005, ***P<0.001 vs. control, ##P<0.005, #IIIIP<0.001 vs. STZ group. N.S.: No significance. Transfection with siRNAs was performed using the HiPerFect reagent (Qiagen, Hilden, Germany), according to the manufacturer's protocol. Specific siRNAs directed against GLUT2, clathrin, and caveolin were obtained from Santa Cruz Biotechnology (Dallas, Tex., USA).

INS-1 cells = assay: High glucose (HG)-induced cell apoptosis in INS-1 cells, flow cytometry; assay type: cell-based, rat; settings: pre-treated with 50 or 100 μg/mL of PLAG for 1 h, then 30 mM HG for 48 h
Description: Effect of PLAG on pancreatic beta cell protection was investigated after HG-treatment. HG-induced cell apoptosis was analyzed using flow cytometry. INS-1 cells were pre-treated with 50 or 100 μg/mL of PLAG for lh, and then treated with 30 mM of HG for 48h. When INS-1 cells were maintained in a high glucose conditions, there was a significant increase in cell apoptosis compared to control cells.
INS-1 rat insulinoma pancreas beta cells were cultured in RPMI-1640 medium (Welgene, Gyeongsangbuk-do, Republic of Korea) containing 10% fetal bovine serum (Tissue Culture Biologicals, Long Beach, Calif., USA), 50 μM β-mercaptoethanol, 100 units/mL penicillin, and 100 μg/mL streptomycin (Antibiotic-Antimycotic Solution, Welgene). The cells were grown in a humidified atmosphere with 5% CO2 at 37° C. Chemicals and reagents
PLAG was obtained from Enzychem Lifesciences (Seoul, Republic of Korea). D-glucose was purchased from Sigma-Aldrich (St. Louis, Mo., USA). PLAG was dissolved in ethanol and the final working concentration was 0.1% (v/v). D-glucose was dissolved in cell culture medium.
Cells were collected by trypsinization and washed with ice-cold PBS. For cell apoptosis analyses, INS-1 cells were incubated with annexin V (BD Biosciences, Franklin Lakes, N.J., USA) for 10 min at room temperature, and stained with 7-AAD (BD Biosciences). […]

With `CCCCC/C=C\C/C=C\CCCCCCCC(=O)OC(COC(C)=O)COC(=O)CCCCCCCCCCCCCCC` (racemic) [PLAG, 1-palmitoyl-2-linoleoyl-3-acetyl-rac-glycerol] the “serum insulin (insulin secretion)” value ([1]; day 4, STZ-only group compared with control and PLAG groups (250 mg/kg p.o.)) was “Insulin secretion of the STZ-only treatment group is significantly lower than the control and other experimental groups”, the body weight change ([1]; during the experiment, STZ-only group compared with control and PLAG groups (250 mg/kg p.o.)) was “STZ-only treatment group has a greater weight change than the control and other experimental groups” and the blood glucose ([1]; first day, PLAG-co-treatment group, 250 mg/kg p.o. once daily, STZ 200 mg/kg i.p., vs control group) was “did not have a significant increase in blood glucose”. The “expression of anti-apoptotic protein BCL-2” value ([2]; decreased by STZ) was “recovered by PLAG”, the “expression of apoptosis-related proteins BAX, cytochrome c, and caspase-3” value ([2]; increased by STZ) was “attenuated by PLAG addition” and the “apoptosis or ROS generation in clathrin- or caveolin-silenced cells” value [3] was “did not influence apoptosis or ROS generation”. The HG-induced cell apoptosis (INS-1 cells) was “a decreased rate of apoptosis was observed; also recorded: dose-dependently decreased”.
